Assay results reported in patent publication US9995734B2, “Human T cell line assay for evaluating the immunologic identity of glatiramer acetate preparations” (Mylan Inc., priority 2013, dated 2018).
Values joined by “and” are separate entries in the source; they are usually repeats but may differ in a detail not shown here. Equal values may be shown once.

What was measured:
Donor 1 COP T-Cell Lines = assay: ATP proliferation assay (CellTiter Glo), Donor 1 COP T-cell lines, incl. reactivity to non-canonical GA peptides; assay type: cell-based, human; conditions: for luminescent ATP proliferation assay, mean / proliferation response to non-canonical GA peptides: Day 56; for luminescent ATP proliferation assay, mean: no antigen 5673 (Table 9); for Non-Canonical Peptide Non-Reactivity: proliferation <2 times no antigen control; for Nonreactive T-Cell Line / Reactive T-Cell Line: Donor 1 COP lines; for Nonreactive T-Cell Line: stimulation with the non-canonical GA peptide; for proliferation response to non-canonical GA peptides: 0, 3, 10, 30 μg/mL; for Reactive T-Cell Line: at least a 50% increase in proliferation relative to a control after stimulation with the non-canonical GA peptide
Experimental: Proliferation was evaluated by measuring ATP content using a luminescent method (CellTiter Glo Luminescent Cell Viability Assay, Promega, Madison, Wis., cat. #G7571) or by measuring BrdU uptake by ELISA (Millipore cat. #2752), in both cases following kit instructions. A split well format was used. Cells in each well were resuspended and 65 μl transferred to the wells of each of two new U-bottom 96-well plates, to generate the replicate plates. For the initial screening, the original 96-well plate received mitomycin-treated autologous PBMC as APC plus 10 μg/mL antigen (GA). A first replicate plate received 100 μl., mitomycin-treated PBMC alone (2×10^5), and no antigen, and a second replicate plate received 100 μL mitomycin-treated PBMC plus GA at a final concentration of 10 μg/mL. Therefore, all three plates received autologous APC (PBMC) treated with mitomycin C to prevent cell division. […] The latter two plates were incubated for 3 days at 37° C., 6% CO2 before adding CellTiter Glo or BrdU and measuring signal. IL-2 was added at 10 U/mL to the original 96-well plate for expansion on Day 17. For subsequent screenings, mitomycin-treated EBV-transformed autologous B-LCL (2×10^5 to 5×10^5 cells/mL) were used as APC.
COP-responsive T-cell lines were obtained from Donor 1. In the initial stimulation, isolated PBMC were plated at 1×10^5 cells per well (5×10^5 cells/mL) with 10 μg/mL Copaxone and cultured as described above. IL-2 was added to all wells on Days 4 and 7 of culture, and the wells screened for reactivity on Day 14 using a luminescent proliferation assay in split well format. The original plate was restimulated, and IL-2 added 4 days after restimulation.
T-cell line 222-2D8, generated from Donor 1 by initial stimulation with COP, was shown in at least two experiments to proliferate comparably following restimulation with GMA and COP. […] ATP levels were measured at 48 hours after stimulation. The control in the GMA series was no antigen, and the control in the COP series was MBP. The response to GMA in comparison to COP at the 10 μg/mL dose in this assay was 103.4%.
In a second ATP proliferation assay, carried out on Day 56 or culturing following stimulation with 1, 3, or 10 μg/mL of GMA or COP, the response to GMA in comparison to COP at the 10 μg/mL dose was 107.1%.
T-cell line 222-2F1, generated from Donor 222 by initial stimulation with COP, was shown in at least two experiments to proliferate comparably following restimulation with GMA and COP. […] ATP levels were measured at 48 hours after stimulation. The control in the GMA series was no antigen, and the control in the COP series was MBP. The response to GMA in comparison to COP at the 10 μg/mL dose in this assay was 85.1%.
On Day 56 of culturing, after six total rounds of stimulation, cell line 222-2F12 was assayed for proliferation in response to stimulation with GA and a series of non-canonical peptides. For the assay, 0, 3, 10, or 30 μg/mL of each of peptides GL 14, GLT 631, GAT 111, and GAT 631, COP, and GMA, were added to the T-cell lines at 1×10^5 cells/mL, in the presence of mitomycin C-treated autologous B-LCL. Proliferation was measured by luminescent ATP assay. Cell line 222-2F12 responded to GL 14 at 3 μg/mL, and not to the other non-canonical GA peptides tested. The response to GMA in comparison to COP at the 10 μg/mL dose in this assay was 99.4%.
The cultures were restimulated on days 46, 56, 67 and 75. On Day 56, cell lines 222-2D8, 222-1H12, 222-2F12, 222-2B8, 222-105, 222-2B11, and 222-2E1 again were tested for reactivity to stimulation with 1, 3, or 10 μg/mL of GMA or COP in a proliferation assay. ATP levels were measured in all seven cell lines at 48 hours (results in FIGS. 5A-G) after stimulation. The control in the GMA series was no antigen, and the control in the COP series was MBP. […]

Donor 4 COP T-Cell Lines = assay: ATP proliferation assay (CellTiter Glo), Donor 4 COP T-cell lines, incl. reactivity to non-canonical GA peptides; assay type: cell-based, human; conditions: for Non-Canonical Peptide Non-Reactivity: proliferation <2 times no antigen control; for reactivity to non-canonical GA peptides: after seven stimulations, 0, 1, 10, 30 μg/mL; for Nonreactive T-Cell Line / Reactive T-Cell Line: Donor 4 COP lines; for Nonreactive T-Cell Line: stimulation with the non-canonical GA peptide; for Proliferation (luminescent ATP assay), Mean: T-cell line 205-1F4, Day 71, autologous B-LCL; for Non-Canonical Peptide Reactivity: at least one proliferation value >=2 times no antigen control; for Reactive T-Cell Line: at least a 50% increase in proliferation relative to a control after stimulation with the non-canonical GA peptide
[1] = T-cell line 205-1B4, 1 μg/mL antigen, No Antigen 830
[2] = T-cell line 205-1B4, 3 μg/mL antigen, No Antigen 830
[3] = T-cell line 205-1B4, 10 μg/mL antigen, No Antigen 830
[4] = T-cell line 205-1B4, 30 μg/mL antigen, No Antigen 830
[5] = T-cell line 205-1C4, 1 μg/mL antigen, No Antigen 4464
[6] = T-cell line 205-1C4, 3 μg/mL antigen, No Antigen 4464
[7] = T-cell line 205-1C4, 10 μg/mL antigen, No Antigen 4464
[8] = T-cell line 205-1C4, 30 μg/mL antigen, No Antigen 4464
[9] = T-cell line 205-1H5, 1 μg/mL antigen, No Antigen 749
[10] = T-cell line 205-1H5, 3 μg/mL antigen, No Antigen 749
[11] = T-cell line 205-1H5, 10 μg/mL antigen, No Antigen 749
[12] = T-cell line 205-1H5, 30 μg/mL antigen, No Antigen 749

| Substance | luminescent ATP proliferation assay, mean (Donor 1 COP T-Cell Lines; 222-2F12, 3 μg/mL) | luminescent ATP proliferation assay, mean (Donor 1 COP T-Cell Lines; 222-2F12, 10 μg/mL) | luminescent ATP proliferation assay, mean (Donor 1 COP T-Cell Lines; 222-2F12, 30 μg/mL) | Non-Canonical Peptide Non-Reactivity (Donor 1 COP T-Cell Lines; 222-2F12) | Nonreactive T-Cell Line (Donor 1 COP T-Cell Lines) | Non-Canonical Peptide Non-Reactivity (Donor 4 COP T-Cell Lines; 205-1B4) | Non-Canonical Peptide Non-Reactivity (Donor 4 COP T-Cell Lines; 205-1C4) | Non-Canonical Peptide Non-Reactivity (Donor 4 COP T-Cell Lines; 205-1F4) | Non-Canonical Peptide Non-Reactivity (Donor 4 COP T-Cell Lines; 205-1H3) | Non-Canonical Peptide Non-Reactivity (Donor 4 COP T-Cell Lines; 205-1H5) | reactivity to non-canonical GA peptides (Donor 4 COP T-Cell Lines; 205-1H7) | Non-Canonical Peptide Non-Reactivity (Donor 4 COP T-Cell Lines; 205-1H11) | Nonreactive T-Cell Line (Donor 4 COP T-Cell Lines) | Reactivity (proliferation), Mean (Donor 4 COP T-Cell Lines; [1]) | Reactivity (proliferation), Mean (Donor 4 COP T-Cell Lines; [2]) | Reactivity (proliferation), Mean (Donor 4 COP T-Cell Lines; [3]) | Reactivity (proliferation), Mean (Donor 4 COP T-Cell Lines; [4]) | Proliferation (luminescent ATP assay), Mean (Donor 4 COP T-Cell Lines; 1 μg/mL antigen) | Proliferation (luminescent ATP assay), Mean (Donor 4 COP T-Cell Lines; 3 μg/mL antigen) | Proliferation (luminescent ATP assay), Mean (Donor 4 COP T-Cell Lines; 10 μg/mL antigen) | also measured |
| --- | --- | --- | --- | --- | --- | --- | --- | --- | --- | --- | --- | --- | --- | --- | --- | --- | --- | --- | --- | --- | --- |
| poly (Glu-Ala-Tyr; 6:3:1) [GAT 631] | 4342 | 3226 | 3071 | GAT 631 | 222-2F12 (Donor 1) and 222-1H12 (Donor 1) | GAT 631 | GAT 631 | GAT 631 | GAT 631 | GAT 631 | not | GAT 631 | 205-1C4 (Donor 4) and 205-1F4 (Donor 4) and 205-1H3 (Donor 4) and 205-1H5 (Donor 4) and 205-1H7 (Donor 4) and 205-1H11 (Donor 4) | 843 RLU | 890 RLU | 845 RLU | 766 RLU | 2424 | 2439 | 3035 | Non-Canonical Peptide Non-Reactivity (Donor 4 COP T-Cell Lines; 205-1H7): GAT 631; Reactivity (proliferation), Mean (Donor 4 COP T-Cell Lines; [5]): 4856 RLU; Reactivity (proliferation), Mean (Donor 4 COP T-Cell Lines; [6]): 5584 RLU; Reactivity (proliferation), Mean (Donor 4 COP T-Cell Lines; [7]): 5666 RLU; Reactivity (proliferation), Mean (Donor 4 COP T-Cell Lines; [8]): 5137 RLU; Reactivity (proliferation), Mean (Donor 4 COP T-Cell Lines; [9]): 648 RLU; Reactivity (proliferation), Mean (Donor 4 COP T-Cell Lines; [10]): 696 RLU; Reactivity (proliferation), Mean (Donor 4 COP T-Cell Lines; [11]): 698 RLU; Reactivity (proliferation), Mean (Donor 4 COP T-Cell Lines; [12]): 669 RLU |
| poly (Glu-Lys-Tyr; 6:3:1) [GLT 631] | 5277 | 4934 | 5217 | GLT 631 | 222-2F12 (Donor 1) | GLT 631 | GLT 631 | GLT 631 | GLT 631 | GLT 631 | reactivity | GLT 631 | 205-1B4 (Donor 4) and 205-1C4 (Donor 4) and 205-1F4 (Donor 4) and 205-1H3 (Donor 4) and 205-1H5 (Donor 4) and 205-1H11 (Donor 4) | 912 RLU | 1059 RLU | 1387 RLU | 1389 RLU | 1938 | 1863 | 2504 | proliferation response to non-canonical GA peptides (Donor 1 COP T-Cell Lines; 222-1H12): responded; Reactive T-Cell Line (Donor 1 COP T-Cell Lines): 222-1H12 (Donor 1); Non-Canonical Peptide Reactivity (Donor 4 COP T-Cell Lines; 205-1H7): GLT 631; Reactive T-Cell Line (Donor 4 COP T-Cell Lines): 205-1H7 (Donor 4); Reactivity (proliferation), Mean (Donor 4 COP T-Cell Lines; [5]): 4559 RLU; Reactivity (proliferation), Mean (Donor 4 COP T-Cell Lines; [6]): 4934 RLU; Reactivity (proliferation), Mean (Donor 4 COP T-Cell Lines; [7]): 5616 RLU; Reactivity (proliferation), Mean (Donor 4 COP T-Cell Lines; [8]): 5782 RLU; Reactivity (proliferation), Mean (Donor 4 COP T-Cell Lines; [9]): 710 RLU; Reactivity (proliferation), Mean (Donor 4 COP T-Cell Lines; [10]): 885 RLU; Reactivity (proliferation), Mean (Donor 4 COP T-Cell Lines; [11]): 1153 RLU; Reactivity (proliferation), Mean (Donor 4 COP T-Cell Lines; [12]): 1294 RLU |
| poly (Glu-Lys; 1:4) [GL 14] | 17007 | 331 | 203 | – | 222-1H12 (Donor 1) | – | – | GL 14 | – | – | – | GL 14 | 205-1F4 (Donor 4) and 205-1H11 (Donor 4) | – | – | – | – | 12630 | 1423 | 158 | proliferation response to non-canonical GA peptides (Donor 1 COP T-Cell Lines; 222-2F12, GL 14 response at 3 μg/mL): responded; Non-Canonical Peptide Reactivity (Donor 1 COP T-Cell Lines; 222-2F12, at least one proliferation value >=2 times no antigen control): GL 14; Reactive T-Cell Line (Donor 1 COP T-Cell Lines): 222-2F12 (Donor 1); reactivity to non-canonical GA peptide (Donor 4 COP T-Cell Lines; 205-1H3, at 1 μg/mL of antigen): showed reactivity; Non-Canonical Peptide Reactivity (Donor 4 COP T-Cell Lines; 205-1H3): GL 14; Reactive T-Cell Line (Donor 4 COP T-Cell Lines): 205-1H3 (Donor 4); Reactivity (proliferation), Mean (Donor 4 COP T-Cell Lines; T-cell line 205-1H3, 1 μg/mL antigen, 0 μg/mL 4121.0): 15619.0; Reactivity (proliferation), Mean (Donor 4 COP T-Cell Lines; T-cell line 205-1H3, 3 μg/mL antigen, 0 μg/mL 4121.0): 1053.3; Reactivity (proliferation), Mean (Donor 4 COP T-Cell Lines; T-cell line 205-1H3, 10 μg/mL antigen, 0 μg/mL 4121.0): 61.0; Reactivity (proliferation), Mean (Donor 4 COP T-Cell Lines; T-cell line 205-1H11, 1 μg/mL antigen, 0 μg/mL 6941): 5954 RLU; Reactivity (proliferation), Mean (Donor 4 COP T-Cell Lines; T-cell line 205-1H11, 10 μg/mL antigen, 0 μg/mL 6941): 102 RLU; Reactivity (proliferation), Mean (Donor 4 COP T-Cell Lines; T-cell line 205-1H11, 30 μg/mL antigen, 0 μg/mL 6941): 74 RLU |
